Results on seven molecules are retold here after patent US20210353579A1, “HIGH PENETRATION COMPOSITIONS AND USES THEREOF” (Techfields Pharma Co., Ltd., priority 2006, published 2021).

Structures are written as SMILES. Structures can show the parent of a compound that is named as a salt.

In one series the test system is Hypertension patients. As to the kind of experiment: Anti-hypertension effect of transdermal atenolol in patients. Format: in vivo, human. Here is the method:
20 Hypertension patents were divided to 2 groups. Group A is control group (n=10, 1 ml of water was administrated to the chest of patients once per day) and group B is atenolol treated group (n=10, 100 mg of atenolol HCl salt was administrated to the chest of patients once per day) (Table 32).

Series [1] deals with cats with ocular hypertension. As to the kind of experiment: Intraocular pressure in cats with ocular hypertension. It is filed as in vivo, cat. Here is the method: The ability of diethylaminoethyl acetylsalicylate.HCl to reduce intraocular pressure (IOP) was evaluated in cats with ocular hypertension produced by previously done laser trabeculoplastry. IOP was determined with a pneumatonometer after light corneal anesthesia with dilute proparacaine. 14 Cats were divided into 2 groups. Baseline IOP was determined prior to treatment with the test compound aqueous solution. […] In group B, 30 mg/kg of diethylaminoethyl acetylsalicylate.HCl the area around eye (outside) of cat trice per day for 10 days.

The conditions of series [2]: 1 hour after 50 mg/kg on the back of sheep, 10% aqueous solution.
Series [3] has as its system Human colon cancer cells (LS174J). The series can be described thus: Human colon cancer xenograft in nude mice, topical. The note with it: day 30, about 30 μl of 5% solution (1.5 mg) topically applied. From the text: Human colon cancer cells (LS174J, 2-3 mm^3 of tumor tissue was used in each mouse) are subcutaneously xenografted into the front leg of nude mice (BALB).

The subject of series [4] is Chinese white rabbits. As to the kind of experiment: Malassezia-induced lesions similar to psoriasis. It is filed as in vivo, rabbit. As to conditions: 5% aqueous solution twice per day, 10 days after application. From the text: Heavy suspensions of Malassezia [Rosenberg, E. W., et al., Mycopathologia, 72, 147-154 (1980)] were applied to the shaved skin on the backs of the Chinese white rabbits (n=4×6) twice (at 7 am and 7 pm) per day for 2 weeks, lesions similar to psoriasis resulted.

Another series deals with mice (MRL/LPR). The series can be described thus: Anti-lupus erythematosus activity. As to conditions: 30 mg/kg topically twice per day, after 6 weeks. Format: in vivo, mouse.
Series [5] has as its system Human breast cancer cells (BCAP-37). As to the kind of experiment: Human breast cancer xenograft in nude mice, topical. As to conditions: day 42; 30 μl of 5% (1.5 mg) topically every 8 hours from day 14; control 800 ± 100. The method, boiled down: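 BCAP-37 tumour tissue (2-3 mm^3) was xenografted subcutaneously into the front leg of nude BALB mice, 7 per group. Compounds were applied topically as 30 μl of 5% solution (1.5 mg) in acetone or water.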

Series [6] concerns normal rats. The series can be described thus: Blood glucose in normal rats, transdermal. It is filed as in vivo, rat. The method, boiled down:
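Compounds equivalent to 20 mg/kg NSAIA were applied transdermally to a shaved ~1.5 cm^2 area of rat backs once daily at 8 am for 5 weeks (n=7). Non-fasting blood glucose was measured every 3 days at 3 pm from week 2 to week 5, and blood lipids at the end of week 5.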

For series [7], the system named is normal rats. As to the kind of experiment: Blood glucose in normal rats, oral with food. Format: in vivo, rat.
Series [8] relates to rats (SLAC/GK, type 2 diabetes). The series can be described thus: Blood lipid in type 2 diabetes rats, oral with food. Format: in vivo, rat. Summed up:
(§1)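 Compounds (dosed equivalent to 20 mg/kg of NSAIAs) mixed in food and given orally daily for 5 weeks to rats (n=7). Non-fasting blood glucose measured every 3 days at 3 pm from week 2 to week 5; blood lipids measured at end of week 5.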

Series [9] shares this test system. The series can be described thus: Blood glucose in type 2 diabetes rats, oral with food. Format: in vivo, rat. The method, boiled down: as §1
The subject of series [10] is mice (SLAC:NOD-IDDM, type 1 diabetes). As to the kind of experiment: Blood glucose in type 1 diabetes mice, transdermal. Format: in vivo, mouse. The method, boiled down: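 NOD-IDDM type 1 diabetic mice (n=7) received prodrug transdermally on shaved back skin (~1.5 cm²), at a dose equivalent to 30 mg/kg NSAIA, once daily for 7 weeks. Non-fasted blood glucose was measured every 3 days at 3 pm from week 4 to week 7.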

In series [11] the test system is rats (SLAC/GK, type 2 diabetes). As to the kind of experiment: Blood lipid in type 2 diabetes rats, transdermal. It is filed as in vivo, rat. The method, boiled down:
(§2)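 GK type 2 diabetic rats (n=7) received the HPPs transdermally on a shaved ~1.5 cm^2 area of the back, at a dose equal to 20 mg/kg of NSAIAs, once daily for 5 weeks. Non-fasting blood glucose was measured every 3 days at 3 pm from week 2 to week 5, and blood lipids at the end of week 5.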

Series [12] has the same test system. As to the kind of experiment: Blood glucose in type 2 diabetes rats, transdermal. It is filed as in vivo, rat. The note with it: diabetic rats (SLAC/GK). The method, boiled down:
as §2

For series [13], the system named is Chinese white rabbits. As to the kind of experiment: Autologous blood clot pulmonary embolization, thrombus propagation. Format: in vivo, rabbit. As to conditions: 20 mg/kg topically, after 2 days. Here is the method:
Eighteen Chinese White rabbits weighing between 3.0 and 3.5 kg (aged 6-7 months) were selected and divided into three groups (control, P-1 and […] groups, n=6). One hour before the experiment, thrombi were made by aspirating venous blood (1 ml) into a sterilized bottle to clot. To avoid fragmentation and slow lysis, the autologous blood clots were stabilized in temperature-controlled (70° C.) distilled water for 10 min. After anesthesia, the femoral veins were exposed and distally isolated, and autologous blood clots (0.05 g/kg) were injected through an indwelling catheter (20 GA), which had been placed in the femoral vein isolated earlier. 50% acetone solution of diethylaminoethyl acetylsalicylate.acetylsalicylic acid salt (P-1, in acetone, 20 mg/kg) and diethylaminoethyl acetylsalicylsalicylate. acetylsalicylsalicylic acid salt (P-59, 20 mg/kg) were topically applied to the back of the rabbits. After 2 days, rabbits were euthanized with an excessive intravenous injection of sodium amobarbital (60 mg/kg). The lungs and hearts were isolated to observe whether thrombi were present in the pulmonary arteries. The lungs were immersed in 10% formalin for 24 h. Consecutive transverse sections along the obstructed pulmonary arteries were paraffin-embedded and stained with hematoxylin-eosine. […]

Setting [14] is: baseline, equal to 20 mg/kg of NSAIAs.
[15] abbreviates: end of the fifth week, equal to 20 mg/kg of NSAIAs every day.
[16] abbreviates: end of the fifth week, equal to 20 mg/kg of NSAIAs once per day.

`CC(C)NCC(O)COc1ccc(CC(N)=O)cc1` (centres unmarked) [atenolol]: the “Blood pressure (2 weeks after treatment), second value” in the series on Hypertension patients (2 weeks after treatment, value after the slash, 100 mg atenolol HCl salt to the chest once per day) came to 113 ± 23 mmHg. For the same molecule, in the series on Hypertension patients (before treatment, value after the slash, 100 mg atenolol HCl salt to the chest once per day), the “Blood Pressure (before treatment), second value” is on record as 110 ± 20 mmHg.
For the molecule `CCN(CC)CCOC(=O)c1ccccc1OC(C)=O.Cl` [diethylaminoethyl acetylsalicylate•HCl], the “Intraocular pressure, Base-line” value in series [1] (base-line, prior to treatment, group B, 30 mg/kg around the eye) is on record as 24.1 ± 0.7. For the same molecule, the “Intraocular pressure, End of treatment (day10)” value in [1] (day 10, group B, 30 mg/kg applied to the area around the eye for 10 days) was 16.1 ± 0.5.
`CCN(CC)CCOC(=O)c1ccccc1OC(C)=O.Cl` [Diethylaminoethyl acetylsalicylate.HCl, diethylaminoethyl acetylsalicylate.HCl]: the anti-glaucoma activity result in [1] (30 mg/kg around the eye, 10 days) is on record as “very strong anti-glaucoma activity”.
Turning to `CCN(CC)CCOC(=O)C(C)c1ccc(CC(C)C)cc1.O=C(O)CC(O)(CC(=O)O)C(=O)O` (centres unmarked) [diethylaminoethyl 2-(ρ-isobutylphenyl)propionate. citric acid salt], in series [2], the “ibuprofen found in the milk” value was 55 ± 8 µg/mL and the “ibuprofenamine found in the milk” value was determined as 10 ± 5 µg/mL.
As for `CC(=O)O.CC(C)Cc1ccc(C(C)C(=O)OCC2CCCNC2)cc1` (centres unmarked) [P-5, 3-piperidinemethyl 2-(ρ-isobutylphenyl) propionate.AcOH], the Tumor size was determined as 390 ± 110 mm^3 in [3] and 190 ± 50 mm^3 in series [5]. The “lesions similar to psoriasis” value with Chinese white rabbits [4] was “the lesions were resolved”. The “skin lesions and lupus nephritis” value with mice (MRL/LPR) is “all skin lesions and lupus nephritis were resolved”.
For `CC(C)NCC(O)COc1ccc(CC(N)=O)cc1` (centres unmarked) [atenolol HCl salt, reference compound], the “blood pressure of hypertension patients” value in the series on Hypertension patients (100 mg in 1 ml of pure water per day transdermally) is recorded as “controlled”.
In the case of `CC(=O)Oc1ccccc1C(=O)Oc1ccccc1C(=O)O.CCN(CC)CCOC(=O)c1ccccc1OC(=O)c1ccccc1OC(C)=O` [P-59, diethylaminoethyl acetylsalicylsalicylate.acetylsalicylsalicylic acid salt], the “Blood glucose, Average” value in the series on normal rats [6] (normal rats (second Average line of Table 24), average second to fifth week, equal to 20 mg/kg of NSAIAs once per day) is reported as 7.3 ± 1 mmol/L; in series [10] (average fourth to seventh week, no fasting, equal to 30 mg/kg of NSAIAs once per day for 7 weeks), 8.7 ± 1 mmol/L; in series [12] (average second to fifth week, no fasting, equal to 20 mg/kg of NSAIAs once per day for 5 weeks), 8.7 ± 1 mmol/L. The “Blood glucose, Baseline” value stood at 7.2 ± 1 mmol/L in the series with normal rats [6] (normal rats (second Baseline line of Table 24), baseline, equal to 20 mg/kg of NSAIAs); 24.3 ± 3 mmol/L in series [10] (baseline, equal to 30 mg/kg of NSAIAs); 16.3 ± 3 mmol/L in series [12] (baseline, equal to 20 mg/kg of NSAIAs once per day). Further, in the series with normal rats [7] (average second to fifth week, equal to 20 mg/kg of NSAIAs every day), the “Blood glucose, Normal rats, Average” value amounted to 7.3 ± 1 mmol/L. Besides, the “Blood glucose, Normal rats, Baseline” value with normal rats [7] (setting [14]) amounted to 7.5 ± 1 mmol/L. In addition, the “Cholesterol (HDL), Baseline” value in [8] (setting [14]) was found to be 1.9 ± 0.2 mmol/L; in [11] (setting [14]) it was 1.6 ± 0.2 mmol/L. Moreover, the “Cholesterol (total), Baseline” value is on record as 7.7 ± 0.6 mmol/L in series [8] (setting [14]) and 7.6 ± 0.6 mmol/L in series [11] (setting [14]). In addition, the “Triglycerides, Baseline” value was determined as 5.4 ± 0.6 mmol/L in [8] (setting [14]) and 5.6 ± 0.5 mmol/L in [11] (setting [14]). Moreover, the “Cholesterol (HDL), Average” value in series [8] (setting [15]) amounted to 1.8 ± 0.2 mmol/L; in [11] (setting [16]), 1.6 ± 0.2 mmol/L. The “Cholesterol (total), Average” value in series [8] (setting [15]) is 5.7 ± 0.3 mmol/L; in series [11] (setting [16]), 5.1 ± 0.3 mmol/L. For the same molecule, the “Triglycerides, Average” value in series [8] (setting [15]) is recorded as 2.7 ± 0.2 mmol/L; in series [11] (setting [16]), 1.9 ± 0.2 mmol/L. Further, in [9] (average second to fifth week, no fasting, equal to 20 mg/kg of NSAIAs every day for 5 weeks), the “Blood glucose, Diabetic rats, Average” value is reported as 8.6 ± 1 mmol/L. In addition, in series [9] (setting [14]), the “Blood glucose, Diabetic rats, Baseline” value was 15.3 ± 3 mmol/L. Moreover, the “lung tissue and vascular walls (thrombus propagation)” value with Chinese white rabbits [13] is “both lung tissue and vascular walls were normal”.
